Data on 14 compounds can be found in ChEMBL document CHEMBL1201862, “PubChem BioAssay data set” (2004).

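Exposure lasted 48 hours, with cells grown in 96-well plates and compounds tested at five concentrations. Here, GI50 denotes the concentration required for 50% inhibition of growth.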 Activity calls are given as the source filed them. Rule as the data show it: active = GI50 up to about 1.1 µM and inactive = higher.

Among the test systems are HCC 2998; A549; LXFL 529; SW-620; ACHN; NCI-H460; UACC-62; K562; EKVX; OVCAR-5; M14; UO-31; RPMI-8226; HL-60; RXF 393; MDA-MB-231; MCF7; MDA-N; NCI/ADR-RES; PC-3.
What all share (assay): NCI anticancer screen, dose series, 48 h

As for `COc1cc2ccnc3c2c(c1OC)CC1CC(O)C(OC)CC31` (stereo unspecified), the GI50 in the assay on HCC 2998 is 42.7 µM (inactive); in the assay with A549, 61.8 µM (inactive); in the assay with LXFL 529, 36.6 µM (inactive); in the assay with SW-620 it was 33.7 µM (inactive); in the assay on ACHN, 44.4 µM (inactive); in the assay on NCI-H460, 35.6 µM (inactive). Also, the GI50 with UACC-62 was 38.5 µM (inactive); in the assay with K562 it was 47.2 µM (inactive); in the assay with EKVX it was 22.8 µM (inactive); in the assay with OVCAR-5, 37.5 µM (inactive); in the assay with M14 it was 51.8 µM (inactive); in the assay with UO-31, 20.9 µM (inactive). Further, the values for the GI50 with RPMI-8226 and in the assay with HL-60 were 38.3 µM (inactive) and 28.6 µM (inactive), respectively.
For the compound `CN(C)NC(=O)/C(=C/c1ccc(Cl)cc1)NC(=O)c1ccccc1`, the GI50 is > 100 µM (inactive) with HCC 2998; > 100 µM (inactive) in the assay on A549; > 100 µM (inactive) in the assay on LXFL 529; > 100 µM (inactive) in the assay with ACHN; 69.3 µM (inactive) in the assay with NCI-H460; > 100 µM (inactive) in the assay on UACC-62. For the same compound, the GI50 is 85.3 µM (inactive) in the assay with K562; > 100 µM (inactive) with EKVX; > 100 µM (inactive) in the assay with OVCAR-5; > 100 µM (inactive) in the assay with M14; > 100 µM (inactive) in the assay with RXF 393; 57.1 µM (inactive) with UO-31. The GI50 in the assay on RPMI-8226 is > 100 µM (inactive); with HL-60 it was 34.4 µM (inactive).
On to `CN1CC[C@]2(C)c3cc(O)ccc3CC3CCCC1C32C` (stereo partly specified), for which the GI50 in the assay with HCC 2998 was 47.2 µM (inactive); with A549 it was > 100 µM (inactive); in the assay on LXFL 529, > 100 µM (inactive); in the assay on SW-620, > 100 µM (inactive); in the assay with ACHN it was > 100 µM (inactive); in the assay on NCI-H460, > 100 µM (inactive). The GI50 in the assay on UACC-62, with K562, in the assay with EKVX, in the assay on OVCAR-5, in the assay with M14 and in the assay on RXF 393 was > 100 µM (inactive) throughout. The GI50 was 89.7 µM (inactive) in the assay with UO-31, > 100 µM (inactive) with RPMI-8226 and > 100 µM (inactive) in the assay with HL-60.
On to `COC(=O)c1cc2c3c(ccc2[nH]1)N(C(=O)c1cc2c4c(ccc2[nH]1)N(C(=O)c1cc2c5c(ccc2[nH]1)N(C(N)=O)CC5)CC4)CC3`, for which the GI50 in the assay on HCC 2998 was 5.45 µM (inactive); in the assay with A549, 3 µM (inactive); in the assay with LXFL 529, 2.07 µM (inactive); with SW-620 it was 7.85 µM (inactive); in the assay on ACHN, 3.13 µM (inactive); in the assay with NCI-H460, 3.24 µM (inactive). For the same compound, the GI50 with UACC-62 was 0.845 µM (active); with K562 it was 2.44 µM (inactive); in the assay on EKVX, 2.17 µM (inactive); in the assay on OVCAR-5, > 52.7 µM (inactive); with M14, 1.87 µM (inactive); in the assay on RXF 393, 2.17 µM (inactive). Further, the GI50 with UO-31 was 3.94 µM (inactive); in the assay on RPMI-8226, 7.89 µM (inactive); in the assay with HL-60, 6.62 µM (inactive).
In the case of `CC1(C)O/C(=C\c2ccccc2)C(=O)/C(=C/c2ccccc2)O1`, the GI50 in the assay with A549 is 23.3 µM (inactive); with LXFL 529, 20.4 µM (inactive); in the assay with SW-620, 55.1 µM (inactive); with ACHN, 33.8 µM (inactive); in the assay on NCI-H460 it was 59.6 µM (inactive); in the assay on UACC-62 it was 25.8 µM (inactive). In addition, the GI50 in the assay with K562 was 27 µM (inactive); in the assay on EKVX, 37.9 µM (inactive); in the assay on OVCAR-5 it was 14.7 µM (inactive); with M14, 34.4 µM (inactive); in the assay with RXF 393, 13.9 µM (inactive); in the assay on UO-31 it was 19.1 µM (inactive). Moreover, the GI50 is 16.3 µM (inactive) with RPMI-8226 and 9.25 µM (inactive) with HL-60.
On to `Cc1nc(N)nc(N)c1CCCCc1ccc(N)cc1`, for which the GI50 with HCC 2998 is 3.25 µM (inactive); in the assay with A549, 0.668 µM (active); in the assay with LXFL 529, 6.46 µM (inactive); in the assay with SW-620 it was 3.29 µM (inactive); with ACHN, 4.12 µM (inactive); in the assay with NCI-H460, 0.959 µM (active). In addition, the GI50 with UACC-62 was 1.86 µM (inactive); in the assay with K562, 0.321 µM (active); in the assay with EKVX, 9.23 µM (inactive); with OVCAR-5 it was 4.46 µM (inactive); in the assay on M14, 2.58 µM (inactive); with UO-31, 13.2 µM (inactive). Moreover, the GI50 in the assay with RPMI-8226 was 5.81 µM (inactive); in the assay on HL-60, 3.07 µM (inactive).
With `COc1cc(C2(C)SCCCS2)cc(OC)c1OC`, the GI50 with HCC 2998, with A549, in the assay with LXFL 529, with SW-620, with ACHN and with NCI-H460 was > 100 µM (inactive) in each case. Also, the GI50 with UACC-62, with K562, in the assay with EKVX, in the assay with OVCAR-5, in the assay with M14 and in the assay with UO-31 was > 100 µM (inactive) throughout. The GI50 in the assay with RPMI-8226 and in the assay with HL-60 was > 100 µM (inactive) in each case.
Consider `COC(=O)C1CC(C(=O)OC)c2nc3cc(C)ccc3nc21` (stereo unspecified), for which the GI50 in the assay on HCC 2998, in the assay with A549, with LXFL 529, with SW-620, in the assay with ACHN and in the assay on NCI-H460 was > 100 µM (inactive) throughout. Moreover, the GI50 in the assay on UACC-62, with K562, in the assay on EKVX, in the assay with OVCAR-5, in the assay with M14 and in the assay on UO-31 was > 100 µM (inactive) in each case. In addition, the GI50 in the assay with RPMI-8226 and in the assay on HL-60 was > 100 µM (inactive) throughout.
Regarding `CNC(=O)NCNC(=O)NC`, the GI50 in the assay on HCC 2998, in the assay with A549, with LXFL 529, with SW-620, in the assay on NCI-H460 and with UACC-62 was > 100 µM (inactive) in each case. The GI50 in the assay on K562, with EKVX, in the assay with OVCAR-5, with M14, with RPMI-8226 and in the assay on HL-60 was > 100 µM (inactive) each time.
`Cc1ccc(/C=C(\NC(=O)c2ccccc2)c2nc3ccccc3[nH]2)cc1`: the GI50 with HCC 2998 is 49.5 µM (inactive); in the assay with A549, 42.7 µM (inactive); with LXFL 529 it was 32.2 µM (inactive); with SW-620 it was 50.4 µM (inactive); in the assay with ACHN, 47.5 µM (inactive); in the assay on NCI-H460 it was 37.2 µM (inactive). Moreover, the GI50 is 83.6 µM (inactive) in the assay on UACC-62; 74.5 µM (inactive) in the assay with EKVX; > 100 µM (inactive) in the assay on OVCAR-5; 50 µM (inactive) in the assay on M14; > 100 µM (inactive) in the assay with RXF 393; 48.9 µM (inactive) in the assay with UO-31. Moreover, the GI50 in the assay on HL-60 is 23.9 µM (inactive).
Regarding `COC(=O)C(C(=O)C(=O)Nc1ccc(C)cc1C)c1nc2ccc([N+](=O)[O-])cc2nc1O` (stereo unspecified), the GI50 in the assay on A549 is > 100 µM (inactive); in the assay on LXFL 529, 56.8 µM (inactive); with SW-620, > 100 µM (inactive); in the assay on ACHN it was > 100 µM (inactive); with NCI-H460, > 100 µM (inactive); in the assay on UACC-62, > 100 µM (inactive). Also, the GI50 with K562 was 78.7 µM (inactive); with EKVX it was > 100 µM (inactive); in the assay on OVCAR-5, > 100 µM (inactive); in the assay with M14, > 100 µM (inactive); with RXF 393, > 100 µM (inactive); in the assay on UO-31, 76.2 µM (inactive). In addition, the GI50 with RPMI-8226 was 33.8 µM (inactive); with HL-60, 34.8 µM (inactive).
Consider `Oc1ccc(-c2n[nH]c(S)n2)cc1`, for which the GI50 with A549, with LXFL 529, with SW-620, in the assay on ACHN, in the assay with NCI-H460 and in the assay with UACC-62 was > 100 µM (inactive) throughout. Also, the GI50 with K562, with EKVX, with OVCAR-5, with M14, in the assay with UO-31 and in the assay on RPMI-8226 was > 100 µM (inactive) throughout. Also, in the assay with HL-60, the GI50 was > 100 µM (inactive).
For `C=C(CCOC)CCC1CCCCC/C1=N\N(C)C` (stereo unspecified), the GI50 in the assay on HCC 2998, in the assay on A549, with MDA-MB-231, in the assay with SW-620, in the assay on ACHN and in the assay with MCF7 was > 100 µM (inactive) throughout. For the same compound, the GI50 in the assay with NCI-H460, in the assay with UACC-62, with K562, with EKVX, in the assay with OVCAR-5 and with M14 was > 100 µM (inactive) in each case. The GI50 in the assay with RXF 393, in the assay with UO-31, in the assay with MDA-N, with RPMI-8226, in the assay on HL-60 and in the assay on NCI/ADR-RES was > 100 µM (inactive) throughout. In the assay on PC-3, the GI50 was > 100 µM (inactive).
On to `ClC(/N=N/c1ccccc1)=N/Nc1ccccc1`, for which the GI50 is 41.8 µM (inactive) in the assay with HCC 2998; > 100 µM (inactive) in the assay with A549; 28.5 µM (inactive) in the assay with LXFL 529; 31.8 µM (inactive) with SW-620; 34.8 µM (inactive) in the assay on ACHN; > 100 µM (inactive) in the assay on NCI-H460. Besides, the GI50 in the assay with K562 was 38.3 µM (inactive); in the assay with EKVX, 96.8 µM (inactive); in the assay on OVCAR-5, > 100 µM (inactive); in the assay on RXF 393, > 100 µM (inactive); in the assay on HL-60, > 100 µM (inactive).
